Experimental data published in paper PMC11855478, “Bicyclic N,S-Acetals Containing Fused Cysteine-Amide System as New Heterocyclic Class Targeting Human Farnesyltransferase (FTase-h)” (International Journal of Molecular Sciences, 2025).

Assays:
[1] = test system: A549/ATCC (Non-Small Cell Lung Cancer); experiment: NCI one dose, A549/ATCC; format: cell-based, human; settings: 1.00E-5 Molar one dose
Description: (§1) 3.4. Cell Proliferation Assay
(§2) Selected compounds were tested on a panel of 60 human cancer cell lines at the National Cancer Institute (NCI), Germantown, MD, USA. The cytotoxicity studies were conducted using a 48 h exposure protocol using the sulfo-rhodamine B assay.

SK-MEL-5 (Melanoma) = experiment: NCI one dose, SK-MEL-5; format: cell-based, human; settings: SK-MEL-5, 1.00E-5 Molar one dose
Description: as §1, §2

[2] = test system: MDA-MB-468 breast cancer cells; experiment: NCI one dose, MDA-MB-468; format: cell-based, human; settings: MDA-MB-468, 1.00E-5 Molar one dose
Description: as §1, §2

SW-620 (Colon Cancer) = experiment: NCI one dose, SW-620; format: cell-based, human; settings: SW-620, 1.00E-5 Molar one dose
Description: as §1, §2

[3] = test system: NCI/ADR-RES (Ovarian Cancer); experiment: NCI one dose, NCI/ADR-RES; format: cell-based, human; settings: 1.00E-5 Molar one dose
Description: as §1, §2

SK-MEL-28 (Melanoma) = experiment: NCI one dose, SK-MEL-28; format: cell-based, human; settings: SK-MEL-28, 1.00E-5 Molar one dose
Description: as §1, §2

MDA-MB-435 (Melanoma) = experiment: NCI one dose, MDA-MB-435; format: cell-based, human; settings: MDA-MB-435, 1.00E-5 Molar one dose
Description: as §1, §2

M14 (Melanoma) = experiment: NCI one dose, M14; format: cell-based, human; settings: M14, 1.00E-5 Molar one dose
Description: as §1, §2

HT29 (Colon Cancer) = experiment: NCI one dose, HT29; format: cell-based, human; settings: HT29, 1.00E-5 Molar one dose
Description: as §1, §2

MCF7 (Breast Cancer) = experiment: NCI one dose, MCF7; format: cell-based, human; settings: MCF7, 1.00E-5 Molar one dose
Description: as §1, §2

OVCAR-8 (Ovarian Cancer) = experiment: NCI one dose, OVCAR-8; format: cell-based, human; settings: OVCAR-8, 1.00E-5 Molar one dose
Description: as §1, §2

UO-31 renal cancer cells = experiment: NCI one dose, UO-31; format: cell-based, human; settings: UO-31, 1.00E-5 Molar one dose
Description: as §1, §2

HCT-15 (Colon Cancer) = experiment: NCI one dose, HCT-15; format: cell-based, human; settings: HCT-15, 1.00E-5 Molar one dose
Description: as §1, §2

[4] = test system: MDA-MB-231/ATCC (Breast Cancer); experiment: NCI one dose, MDA-MB-231/ATCC; format: cell-based, human; settings: 1.00E-5 Molar one dose
Description: as §1, §2

786-0 (Renal Cancer) = experiment: NCI one dose, 786-0; format: cell-based, human; settings: 786-0, 1.00E-5 Molar one dose
Description: as §1, §2

SNB-75 (CNS Cancer) = experiment: NCI one dose, SNB-75; format: cell-based, human; settings: SNB-75, 1.00E-5 Molar one dose
Description: as §1, §2

[5] = test system: HOP-62 (Non-Small Cell Lung Cancer); experiment: NCI one dose, HOP-62; format: cell-based, human; settings: HOP-62, 1.00E-5 Molar one dose
Description: as §1, §2

DU-145 (Prostate Cancer) = experiment: NCI one dose, DU-145; format: cell-based, human; settings: DU-145, 1.00E-5 Molar one dose
Description: as §1, §2

TK-10 (Renal Cancer) = experiment: NCI one dose, TK-10; format: cell-based, human; settings: TK-10, 1.00E-5 Molar one dose
Description: as §1, §2

PC-3 (Prostate Cancer) = experiment: NCI one dose, PC-3; format: cell-based, human; settings: PC-3, 1.00E-5 Molar one dose
Description: as §1, §2

MOLT-4 (Leukemia) = experiment: NCI one dose, MOLT-4; format: cell-based, human; settings: MOLT-4, 1.00E-5 Molar one dose
Description: as §1, §2

[6] = test system: NCI-H522 non-small cell lung cancer cells; experiment: NCI cell proliferation, NCI-H522; format: cell-based, human; settings: for inhibition at 10 µM: Homo sapiens, NCI-H522, read-out: % Cancer cell growth Inhibition (NCI-H522); for Growth Percent: NCI-H522, 1.00E-5 Molar one dose
Description: as §1, §2

HCT-116 (Colon Cancer) = experiment: NCI one dose, HCT-116; format: cell-based, human; settings: HCT-116, 1.00E-5 Molar one dose
Description: as §1, §2

[7] = test system: HOP-92 (Non-Small Cell Lung Cancer); experiment: NCI one dose, HOP-92; format: cell-based, human; settings: HOP-92, 1.00E-5 Molar one dose
Description: as §1, §2

[8] = target: human farnesyltransferase (FTase) (Homo sapiens, UniProt P49354+P49356); experiment: FTase inhibitory assay (fluorescence, Dansyl-GCVLS); format: biochemical; settings: for IC50: human FTase in vitro; for % FTI: inhibition of human FTase at 100 μM of tested compound, mean of two experiments
Description: With 40 new products in hand, the determination of their inhibitory activity on human farnesyl-transferase (FTase) in vitro was first undertaken. Dimethyl sulfoxide (DMSO) was used as the negative control, and Chaetomellic acid A was the positive reference in all assays. At the outset, and in order to select only significant results, products with an inhibitory power greater than 60% at an initial screening concentration of 100 µM were retained for the determination of their IC50 and, therefore, for further discussion. Moreover, given the number of products tested, they are grouped into three subfamilies on the basis of the degree of the sulphur atom oxidation (series of sulfides, series of sulfoxides, and series of sulfones), and the results obtained are grouped in Table 1, Table 2 and Table 3.
3.3. FTase Inhibitory Assay
Assays were realized in 96-well plates, prepared with a Biomek NKMC and a Biomek 3000 from Beckman Coulter, and read on a Wallac Victor fluorimeter from PerkinElmer. Per well, 20 µL of farnesyl pyrophosphate (10 μM) was added to 180 µL of a solution containing 2 µL of varied concentrations of potential inhibitors (dissolved in DMSO) and 178 μL of a solution composed of 10 μL of partially purified recombinant human FTase (15 µg mL^−1) and 1.0 µL of Dansyl-GCVLS peptide (in the following buffer: 5.6 mM DTT, 5.6 mM MgCl2, 12 μM ZnCl2 and 0.2% (w/v) octyl-β-D-glucopyranoside, 52 mM Tris/HCl, pH 7.5). Fluorescence was recorded for 15 min (0.7 s per well, 20 repeats) at 30 °C with an excitation filter at 340 nm and an emission filter of 486 nm. Each measurement was reproduced twice, in duplicate. The kinetic experiments were realized under the same conditions, either with FPP as varied substrate with a constant concentration of Dns-GCVLS of 2.5 μM or with Dns-GCVLS as varied substrate with a constant concentration of FPP of 10 μM. Non-linear regressions were performed using the Excel software.

Row | Structure (SMILES) | Growth Percent [1] [%] | Growth Percent (SK-MEL-5 (Melanoma)) [%] | Growth Percent [2] [%] | Growth Percent (SW-620 (Colon Cancer)) [%] | Growth Percent [3] [%] | Growth Percent (SK-MEL-28 (Melanoma)) [%] | Growth Percent (MDA-MB-435 (Melanoma)) [%] | Growth Percent (M14 (Melanoma)) [%] | Growth Percent (HT29 (Colon Cancer)) [%] | Growth Percent (MCF7 (Breast Cancer)) [%] | Growth Percent (OVCAR-8 (Ovarian Cancer)) [%] | Growth Percent (UO-31 renal cancer cells) [%] | Growth Percent (HCT-15 (Colon Cancer)) [%] | Growth Percent [4] [%] | Growth Percent (786-0 (Renal Cancer)) [%] | Growth Percent (SNB-75 (CNS Cancer)) [%] | Growth Percent [5] [%] | Growth Percent (DU-145 (Prostate Cancer)) [%] | Growth Percent (TK-10 (Renal Cancer)) [%] | Growth Percent (PC-3 (Prostate Cancer)) [%] | further results
1 | O=C(NCc1ccccc1)[C@@H]1CS[C@H]2c3ccccc3C(=O)N12 [4aA] | 97.86 | 114.63 | 105.86 | 102.46 | 99.86 | 110.09 | 106.84 | 94.47 | 99.44 | 87.71 | 101.18 | 91.66 | 103.68 | 100.79 | 85.46 | 84.04 | 97.31 | 111.90 | 96.56 | 96.96 | Growth Percent (MOLT-4 (Leukemia)): 95.69%; inhibition at 10 µM [6]: 13%; Growth Percent [6]: 79.32%; Growth Percent (HCT-116 (Colon Cancer)): 87.66%; Growth Percent [7]: 87.72%
2 | O=C(NCc1ccccc1C(F)(F)F)[C@@H]1CS[C@H]2c3ccccc3C(=O)N12 [4aC] | 90.42 | 107.31 | 112.27 | 104.34 | 99.79 | 99.12 | 102.87 | 95.62 | 91.65 | 90.35 | 94.34 | 74.84 | 103.73 | 91.35 | 86.33 | 85.21 | 87.37 | 107.34 | 108.86 | 85.22 | Growth Percent (MOLT-4 (Leukemia)): 85.46%; inhibition at 10 µM [6]: 22%; Growth Percent [6]: 78.18%; Growth Percent (HCT-116 (Colon Cancer)): 87.63%; Growth Percent [7]: 77.56%; IC50 [8]: 594 nM; % FTI [8]: 62%
3 | O=C(NCc1cccc(C(F)(F)F)c1)[C@@H]1CS[C@H]2c3ccccc3C(=O)N12 [4aD] | 94.49 | 110.95 | 98.77 | 107.41 | 92.62 | 108.89 | 107.10 | 97.50 | 91.88 | 91.11 | 94.59 | 78.58 | 100.16 | 97.44 | 88.74 | 75.92 | 85.91 | 110.52 | 117.52 | 86.39 | Growth Percent (MOLT-4 (Leukemia)): 86.93%; inhibition at 10 µM [6]: 25%; Growth Percent [6]: 74.73%; Growth Percent (HCT-116 (Colon Cancer)): 91.63%; Growth Percent [7]: 79.43%; % FTI [8]: 37%
4 | COc1ccc(CNC(=O)[C@@H]2CS[C@H]3c4ccccc4C(=O)N23)cc1 [4aF] | 95.62 | 110.95 | 122.00 | 105.03 | 103.64 | 102.14 | 114.08 | 99.91 | 103.88 | 85.78 | 99.52 | 75.18 | 100.29 | 107.73 | 97.97 | 114.38 | 94.33 | 116.46 | 105.25 | 90.27 | Growth Percent (MOLT-4 (Leukemia)): 97.28%; inhibition at 10 µM [6]: 13%; Growth Percent [6]: 87.40%; Growth Percent (HCT-116 (Colon Cancer)): 101.21%; Growth Percent [7]: 86.03%; IC50 [8]: 2730 nM; % FTI [8]: 80%
5 | COc1cc(CNC(=O)[C@@H]2CS[C@H]3c4ccccc4C(=O)N23)cc(OC)c1OC [4aJ] | 98.15 | 107.99 | 91.25 | 104.14 | 95.00 | 109.82 | 106.49 | 94.92 | 103.83 | 104.04 | 103.46 | 84.08 | 107.89 | 84.71 | 90.66 | 86.61 | 94.96 | 113.37 | 103.10 | 87.87 | Growth Percent (MOLT-4 (Leukemia)): 90.32%; inhibition at 10 µM [6]: 17%; Growth Percent [6]: 83.00%; Growth Percent (HCT-116 (Colon Cancer)): 92.64%; Growth Percent [7]: 93.68%; % FTI [8]: 23%
6 | O=C(NCc1ccc(Cl)cc1Cl)[C@@H]1CS[C@H]2c3ccccc3C(=O)N12 [4aH] | 97.39 | 109.91 | 91.86 | 105.59 | 92.00 | 103.04 | 100.39 | 99.48 | 96.30 | 94.95 | 97.57 | 83.58 | 102.53 | 110.76 | 89.83 | 89.63 | 97.52 | 109.93 | 103.48 | 81.35 | Growth Percent (MOLT-4 (Leukemia)): 79.54%; inhibition at 10 µM [6]: 27%; Growth Percent [6]: 72.97%; Growth Percent (HCT-116 (Colon Cancer)): 83.47%; Growth Percent [7]: 75.56%; % FTI [8]: 52%
